The results in this text go back to PMC8289188, “Polyoxometalates as Effective Nano-inhibitors of Amyloid Aggregation of Pro-inflammatory S100A9 Protein Involved in Neurodegenerative Diseases” (ACS Applied Materials & Interfaces, 2021).

In test [1] the target is T1, S100A9 (Homo sapiens, UniProt P06702).
T1 construct: native S100A9 expressed in Escherichia coli
T1 sequence (P06702 1-114): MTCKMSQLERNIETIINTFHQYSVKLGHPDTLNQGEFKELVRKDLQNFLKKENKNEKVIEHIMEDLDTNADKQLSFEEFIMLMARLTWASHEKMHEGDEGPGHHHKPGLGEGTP
The test can be described thus: intrinsic Trp88 fluorescence titration; ANS fluorescence titration gave Kd […]; ThT/AFM amyloid inhibition. It counts as binding.

The target of test [2] is T1, S100A9. Described as above. The format is binding. This is another data set of the same source.

Like-named read-outs stand apart in the source and are kept apart here.

As for Nb10, binding on S100A9 [1] was characterised by a dissociation constant (Kd) of 2860 ± 390 nM.
On to TiNb9, for which the affinity on S100A9 [2], expressed as Kd, was 2480 ± 200 nM.
